Assay results from patent US4472413A, “9'-Azabicyclo [3.3.1] nonyl benzamide” (Beecham Group p.l.c., priority 1981, dated 1984).

The compounds below were run on post-synaptic Dopamine (D.A.) receptors (assay: Inhibition of apomorphine induced climbing in the mouse). Conditions: po, 4 hour post dosing; apomorphine 1 mg/kg subcutaneous; male CD1 mice.
Assay type: in vivo
Method: The results in the following table are an illustration of the anti-psychotic activity of the present compounds as shown by Inhibition of Apormorphine Induced Climbing in the Mouse, a standard test.
Inhibition of apomorphine induced climbing in the mouse
The test is based on that described by Protais, P., Constantin, J. and Schwartz J. C. (1976), Psychopharmacology, 50, 1-6.
When mice are given a dose of 1 mg/kg apomorphine and then placed in an enclosed environment, such as an inverted wire cage, they are seen to climb around the walls. This behavioural phenomenon is thought to be a consequence of the stimulation of post-synaptic Dopamine (D.A.) receptors in the nucleus accumbens. Inhibition of apomorphine induced climbing is therefore indicative of post-synaptic D.A. receptor blockage in the accumbens.
Groups of 10 male CD1 mice, weighing 25-30 g were pre-treated orally with either graded doses of the test compound or vehicle, at appropriate time intervals before the subcutaneous administration of a sub-maximal dose of apomorphine (1 mg/kg). Immediately after the apomorphine injection the mice were placed in wire `climbing cages` and each animal was scored for climbing behaviour at 10 and 20 minutes post apomorphine as follows:
Four paws on cage floor=0
The total score was calculated for each group of mice and expressed as a percentage inhibition of climbing. [formula]
ED50's and fiducial limits were calculated according to the method of Litchfield and Wilcoxon, the ED50 being the dose that produced a 50% inhibition of apomorphine-induced climbing.
In the case of `COc1cc(N)c(Cl)cc1C(=O)N[C@@H]1C[C@H]2CCC[C@@H](C1)N2Cc1ccc(C)cc1` [Example 3B, 4-Amino-5-chloro-2-methoxy-N-{3'β[9'-(4-methylbenzyl)-9'-azabicyclo[3.3.1]-nonyl]}-benzamide], the “ED50 (dose that produced a 50% inhibition of apomorphine-induced climbing)” value is reported as 0.07 mg/kg. With `COc1cc(N)c(Cl)cc1C(=O)N[C@@H]1C[C@H]2CCC[C@@H](C1)N2Cc1ccc(Cl)cc1` [Example 2B] the “ED50 (dose that produced a 50% inhibition of apomorphine-induced climbing)” value was 0.027 mg/kg. For `COc1cc(N)c(Cl)cc1C(=O)N[C@@H]1C[C@H]2CCC[C@@H](C1)N2Cc1ccc(F)cc1` [Example 1B, 4-Amino-5-chloro-2-methoxy-N-{3'β-[9'-(4-fluorobenzyl)-9'-azabicyclo[3.3.1]-nonyl]}-benzamide], the “ED50 (dose that produced a 50% inhibition of apomorphine-induced climbing)” value was 0.008 mg/kg.
